# Experimental data: paper doi:10.1101/2021.10.07.463234v2 (biorxiv, 2021)
# Structures can show the parent of a compound that is named as a salt.
# Biological target: SARS-CoV-2 Mac1 (Severe acute respiratory syndrome coronavirus 2, UniProt P0DTD1)
# Assay: biochemical
# Details: 100 µM; inhibitor
row,SMILES,%inhibition [%]
1,Cc1ccc(C(=O)c2ccc(CC(=O)O)n2C)cc1 [Tolmetin Sodium],0.1982
2,Cc1ccc(C(=O)c2ccc(CC(=O)O)n2C)cc1 [Tolmetin],4.72
3,Cn1c(=O)cc(N2CCC[C@@H](N)C2)n(Cc2cc(F)ccc2C#N)c1=O [Trelagliptin succinate],24.59
4,Cn1c(=O)cc(N2CCC[C@@H](N)C2)n(Cc2cc(F)ccc2C#N)c1=O [Trelagliptin],0
5,CN1[C@@H]2CC[C@H]1C[C@@H](OC(=O)c1c[nH]c3ccccc13)C2 [Tropisetron HCl],30.45
6,CN1[C@@H]2CC[C@H]1C[C@@H](OC(=O)c1c[nH]c3ccccc13)C2 [Tropisetron],6.575

# Same assay, conditions: read-out: %inhibition
row,SMILES,inhibition at 100 µM [%]
1,CCCCNC(=O)NS(=O)(=O)c1ccc(C)cc1 [Tolbutamide],0
2,Cc1ccc(C(=O)c2cc(O)c(O)c([N+](=O)[O-])c2)cc1 [Tolcapone],0
3,Cc1c(Cl)cccc1Nc1ccccc1C(=O)O [Tolfenamic Acid],16.4
4,Cc1cccc(N(C)C(=S)Oc2ccc3ccccc3c2)c1 [Tolnaftate],0
5,Cc1ccc(C(=O)C(C)CN2CCCCC2)cc1 (stereo not shown) [Tolperisone HCl],8.81
6,Cc1ccc(O)c([C@H](CCN(C(C)C)C(C)C)c2ccccc2)c1 [Tolterodine tartrate],34.1
7,Cc1cc(-n2c(=O)[nH]c(=O)n(C)c2=O)ccc1Oc1ccc(SC(F)(F)F)cc1 [Toltrazuril],0
8,Cc1ccccc1C(=O)Nc1ccc(C(=O)N2CCCC(O)c3cc(Cl)ccc32)c(C)c1 (stereo not shown) [Tolvaptan],10.6
9,CC1(C)O[C@@H]2[C@@H](CO[C@@]3(COS(N)(=O)=O)OC(C)(C)O[C@@H]23)O1 [Topiramate],0
10,N#Cc1cc(-c2n[nH]c(-c3ccncc3)n2)ccn1 [Topiroxostat],0
11,CC[C@@]1(O)C(=O)OCc2c1cc1n(c2=O)Cc2cc3c(CN(C)C)c(O)ccc3nc2-1 [Topotecan HCl],24.2
12,CN(C)CCOc1ccc(/C(=C(/CCCl)c2ccccc2)c2ccccc2)cc1 [Toremifene Citrate],21.7
13,Cc1cccc(Nc2ccncc2S(=O)(=O)NC(=O)NC(C)C)c1 [Torsemide],15.1
14,"Cc1cc(Nc2cc(N3CCN(C)CC3)nc(Sc3ccc(NC(=O)C4CC4)cc3)n2)n[nH]1 [Tozasertib (VX-680, MK-0457)]",33.2
15,CC(=O)Nc1cccc(-n2c(=O)n(C3CC3)c(=O)c3c(Nc4ccc(I)cc4F)n(C)c(=O)c(C)c32)c1 [Trametinib (GSK1120212)],3.49
16,COc1ccc(/C=C/C(=O)Nc2ccccc2C(=O)O)cc1OC [Tranilast],0
17,N[C@H]1C[C@@H]1c1ccccc1 [Tranylcypromine (2-PCPA) HCl],0
18,CC(C)OC(=O)CCC/C=C\C[C@@H]1[C@@H](/C=C/[C@@H](O)COc2cccc(C(F)(F)F)c2)[C@H](O)C[C@@H]1O [Travoprost],0
19,CC1=C(/C=C/C(C)=C/C=C/C(C)=C/C(=O)O)C(C)(C)CCC1 [Tretinoin],0
20,CC(=O)OCC(COC(C)=O)OC(C)=O [Triacetin],3.58
21,CC1(C)O[C@@H]2C[C@H]3[C@@H]4CCC5=CC(=O)C=C[C@]5(C)[C@@]4(F)[C@@H](O)C[C@]3(C)[C@]2(C(=O)CO)O1 [Triamcinolone Acetonide],0
22,C[C@]12C=CC(=O)C=C1CC[C@H]1[C@@H]3C[C@@H](O)[C@](O)(C(=O)CO)[C@@]3(C)C[C@H](O)[C@@]12F [Triamcinolone],16.5
23,Nc1nc(N)c2nc(-c3ccccc3)c(N)nc2n1 [Triamterene],4.22
24,COc1cc(C(=O)NCc2ccc(OCCN(C)C)cc2)cc(OC)c1OC [Tribenzagan Hydrochloride],0
25,NS(=O)(=O)c1cc2c(cc1Cl)NC(C(Cl)Cl)NS2(=O)=O (stereo not shown) [Trichlormethiazide],0

row,SMILES,inhibition at 100 µM [%]
1,CSc1nc2cc(Cl)c(Oc3cccc(Cl)c3Cl)cc2[nH]1 [Triclabendazole],20.5
2,Oc1cc(Cl)ccc1Oc1ccc(Cl)cc1Cl [Triclosan],0
3,CN1CCN(CCCN2c3ccccc3Sc3ccc(C(F)(F)F)cc32)CC1 [Trifluoperazine 2HCl],0
4,O=c1[nH]c(=O)n([C@H]2C[C@H](O)[C@@H](CO)O2)cc1C(F)(F)F [Trifluridine],0
5,CC(=O)Oc1cc(C(F)(F)F)ccc1C(=O)O [Triflusal],5.82
6,OC(CCN1CCCCC1)(c1ccccc1)C1CCCCC1 (stereo not shown) [Trihexyphenidyl hydrochloride],2.89
7,C[C@]12CC[C@H]3[C@@H](CC[C@@]45O[C@@H]4C(O)=C(C#N)C[C@]35C)[C@@H]1CC[C@@H]2O [Trilostane],0
8,CCC(COC(=O)c1cc(OC)c(OC)c(OC)c1)(c1ccccc1)N(C)C (stereo not shown) [Trimebutine maleate],0
9,COc1ccc(CN2CCNCC2)c(OC)c1OC [Trimetazidine dihydrochloride],0
10,CN1C(=O)OC(C)(C)C1=O [Trimethadione],0
11,COc1cc(Cc2cnc(N)nc2N)cc(OC)c1OC [Trimethoprim],4.05
12,CC(CN(C)C)CN1c2ccccc2CCc2ccccc21 (stereo not shown) [Trimipramine Maleate],0
13,CN(C)CCN(Cc1ccccc1)c1ccccn1 [Tripelennamine HCl],0
14,Cc1ccc(/C(=C\CN2CCCC2)c2ccccn2)cc1 [Triprolidine Hydrochloride],2.14
15,Cc1c(C)c2c(c(C)c1O)CCC(C)(COc1ccc(CC3SC(=O)NC3=O)cc1)O2 (stereo not shown) [Troglitazone (CS-045)],5.13
16,NC(CO)(CO)CO [Trometamol],3.46
17,O=C(O[C@H]1C[C@H]2CC[C@@H](C1)[N+]21CCCC1)C(O)(c1ccccc1)c1ccccc1 [Trospium chloride],14.5
18,C[C@@H]1O[C@@H](OC[C@H]2O[C@@H](Oc3c(-c4ccc(OCCO)c(OCCO)c4)oc4cc(OCCO)cc(O)c4c3=O)[C@H](O)[C@@H](O)[C@@H]2O)[C@H](O)[C@H](O)[C@H]1O [Troxerutin],0
19,COc1cc(C(=O)NC2CCCNC2)cc(OC)c1OC (stereo not shown) [Troxipide],19.2
20,CC[C@H]1OC(=O)C[C@@H](O)[C@H](C)[C@@H](O[C@@H]2O[C@H](C)[C@@H](O[C@H]3C[C@@](C)(O)[C@@H](O)[C@H](C)O3)[C@H](N(C)C)[C@H]2O)[C@@H](CC=O)C[C@@H](C)C(=O)/C=C/C(C)=C/[C@@H]1CO[C@@H]1O[C@H](C)[C@@H](O)[C@@H](OC)[C@H]1OC [Tylosin tartrate],0
21,CCCCOC(=O)c1ccccc1Nc1cccc(C(F)(F)F)c1 [Ufenamate],7.76
22,CC(=O)[C@@]1(O)CC[C@H]2[C@@H]3CCC4=CC(=O)CCC4=C3[C@@H](c3ccc(N(C)C)cc3)C[C@@]21C [Ulipristal],0.321
23,"CC(C)Nc1cc(-c2c[nH]c(C(=O)N[C@H](CO)c3cccc(Cl)c3)c2)c(Cl)cn1 [Ulixertinib (BVD-523, VRT752271)]",24.8
24,OC(c1ccccc1)(c1ccccc1)C12CC[N+](CCOCc3ccccc3)(CC1)CC2 [Umeclidinium bromide],0
